pIC50: −log10 of the molar value.
Tested on: MDA-MB-231 complex spheroids, growth inhibition
Experiment: Anticancer human tumor MDA-MB-231 cell line growth inhibition [Asc];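 also: spheroids exposed to compounds for 7 days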
Conditions: for pIC50: curve of first compound; for viability, T/C: stronger effect = lower value
Method in brief: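 Concentration series start at each agent's clinical Cmax, or at 10 microM when none is established, and drop in half-log steps; agents are applied alone or together to complex spheroids built with HUVEC and hMSC.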

How did the pIC50 (second compound 0.1 µM) turn out when `C=CC(=O)N1CCN(c2nc(=O)n(-c3c(C)ccnc3C(C)C)c3nc(-c4c(O)cccc4F)c(F)cc23)C(C)C1` (stereo not given) + Cc1c(S(C)(=O)=O)c(-c2cc(F)cc(N3CCN(c4ccc(NS(=O)(=O)c5ccc(NC(CCN6CCC(C(=O)OCCCP(=O)(O)O)CC6)CSc6ccccc6)c(S(=O)(=O)C(F)(F)F)c5)cc4)CC3)c2)c(-c2ccc(Cl)cc2)n1C(C)C was run?
The pIC50 was less than 5.00.

What about the pIC50 (second compound 0.316 µM) of the same compound?
Its pIC50 is less than 5.00.

What about the pIC50 (second compound 1 µM) of the same compound?
Its pIC50 is less than 5.00.

What about the pIC50 (second compound 3.16 µM) of the same compound?
The pIC50 was less than 5.00.

And the pIC50 (second compound 10 µM)?
Its pIC50 is less than 5.00.

What about the viability, T/C (second compound 0.1 µM, first compound 0.0316 µM) of the same compound?
Its viability, T/C is 99.8%.

And the viability, T/C (second compound 0.1 µM, first compound 0.1 µM)?
Its viability, T/C is 94.4%.

And the viability, T/C (second compound 0.1 µM, first compound 0.316 µM)?
Its viability, T/C is 96.7%.

What about the viability, T/C (second compound 0.1 µM, first compound 1 µM) of the same compound?
The viability, T/C was 102%.

What about the viability, T/C (second compound 0.1 µM, first compound 3.16 µM) of the same compound?
The viability, T/C was 105%.

And the viability, T/C (second compound 0.1 µM, first compound 10 µM)?
Its viability, T/C is 98.4%.

What about the viability, T/C (second compound 0.316 µM, first compound 0.0316 µM) of the same compound?
Its viability, T/C is 106%.

And the viability, T/C (second compound 0.316 µM, first compound 0.1 µM)?
Its viability, T/C is 112%.

What about the viability, T/C (second compound 0.316 µM, first compound 0.316 µM) of the same compound?
Its viability, T/C is 111%.

And the viability, T/C (second compound 0.316 µM, first compound 1 µM)?
The viability, T/C was 117%.

What about the viability, T/C (second compound 0.316 µM, first compound 3.16 µM) of the same compound?
The viability, T/C was 116%.

And the viability, T/C (second compound 0.316 µM, first compound 10 µM)?
Its viability, T/C is 116%.

And the viability, T/C (second compound 1 µM, first compound 0.0316 µM)?
Its viability, T/C is 108%.

And the viability, T/C (second compound 1 µM, first compound 0.1 µM)?
The viability, T/C was 106%.

And the viability, T/C (second compound 1 µM, first compound 0.316 µM)?
The viability, T/C was 100%.

What about the viability, T/C (second compound 1 µM, first compound 1 µM) of the same compound?
Its viability, T/C is 111%.

And the viability, T/C (second compound 1 µM, first compound 3.16 µM)?
Its viability, T/C is 109%.

And the viability, T/C (second compound 1 µM, first compound 10 µM)?
Its viability, T/C is 96.6%.

What about the viability, T/C (second compound 3.16 µM, first compound 0.0316 µM) of the same compound?
Its viability, T/C is 104%.

And the viability, T/C (second compound 3.16 µM, first compound 0.1 µM)?
Its viability, T/C is 96.8%.

And the viability, T/C (second compound 3.16 µM, first compound 0.316 µM)?
Its viability, T/C is 89.1%.

What about the viability, T/C (second compound 3.16 µM, first compound 1 µM) of the same compound?
The viability, T/C was 97.5%.

And the viability, T/C (second compound 3.16 µM, first compound 3.16 µM)?
The viability, T/C was 105%.

What about the viability, T/C (second compound 3.16 µM, first compound 10 µM) of the same compound?
Its viability, T/C is 91.2%.

What about the viability, T/C (second compound 10 µM, first compound 0.0316 µM) of the same compound?
Its viability, T/C is 96.6%.

And the viability, T/C (second compound 10 µM, first compound 0.1 µM)?
The viability, T/C was 93.7%.

And the viability, T/C (second compound 10 µM, first compound 0.316 µM)?
The viability, T/C was 93.3%.

What about the viability, T/C (second compound 10 µM, first compound 1 µM) of the same compound?
Its viability, T/C is 96.6%.

What about the viability, T/C (second compound 10 µM, first compound 3.16 µM) of the same compound?
The viability, T/C was 97.1%.

What about the viability, T/C (second compound 10 µM, first compound 10 µM) of the same compound?
The viability, T/C was 83.4%.

`NC(=O)C(=Cn1cnc(-c2cc(C(F)(F)F)cc(C(F)(F)F)c2)n1)c1cncnc1` + CCN1C(C(=O)NC23CCC(C(=O)O)(CC2)CC3)C(c2cccc(Cl)c2F)C2(C(=O)Nc3cc(Cl)ccc32)C12CCCCC2 was tested. Which pIC50 (second compound 0.03 µM) did it give?
Its pIC50 is 7.11.

What about the pIC50 (second compound 0.0949 µM) of the same compound?
The pIC50 was 7.15.

And the pIC50 (second compound 0.3 µM)?
The pIC50 was 7.07.

And the pIC50 (second compound 0.949 µM)?
Its pIC50 is 7.07.

And the pIC50 (second compound 3 µM)?
Its pIC50 is 7.17.

And the viability, T/C (second compound 0.03 µM, first compound 0.000949 µM)?
The viability, T/C was 103%.

What about the viability, T/C (second compound 0.03 µM, first compound 0.003 µM) of the same compound?
Its viability, T/C is 92.8%.

And the viability, T/C (second compound 0.03 µM, first compound 0.00949 µM)?
Its viability, T/C is 82.4%.

What about the viability, T/C (second compound 0.03 µM, first compound 0.03 µM) of the same compound?
The viability, T/C was 60%.

And the viability, T/C (second compound 0.03 µM, first compound 0.0949 µM)?
The viability, T/C was 52.5%.

And the viability, T/C (second compound 0.03 µM, first compound 0.3 µM)?
The viability, T/C was 23.6%.

And the viability, T/C (second compound 0.0949 µM, first compound 0.000949 µM)?
Its viability, T/C is 111%.

And the viability, T/C (second compound 0.0949 µM, first compound 0.003 µM)?
The viability, T/C was 103%.

What about the viability, T/C (second compound 0.0949 µM, first compound 0.00949 µM) of the same compound?
Its viability, T/C is 90.4%.

And the viability, T/C (second compound 0.0949 µM, first compound 0.03 µM)?
The viability, T/C was 62.6%.

And the viability, T/C (second compound 0.0949 µM, first compound 0.0949 µM)?
Its viability, T/C is 47.3%.

And the viability, T/C (second compound 0.0949 µM, first compound 0.3 µM)?
Its viability, T/C is 21.7%.

What about the viability, T/C (second compound 0.3 µM, first compound 0.000949 µM) of the same compound?
Its viability, T/C is 112%.

And the viability, T/C (second compound 0.3 µM, first compound 0.003 µM)?
Its viability, T/C is 102%.

And the viability, T/C (second compound 0.3 µM, first compound 0.00949 µM)?
The viability, T/C was 87%.

What about the viability, T/C (second compound 0.3 µM, first compound 0.03 µM) of the same compound?
Its viability, T/C is 63.1%.

What about the viability, T/C (second compound 0.3 µM, first compound 0.0949 µM) of the same compound?
The viability, T/C was 52.5%.

What about the viability, T/C (second compound 0.3 µM, first compound 0.3 µM) of the same compound?
The viability, T/C was 25%.

And the viability, T/C (second compound 0.949 µM, first compound 0.000949 µM)?
The viability, T/C was 117%.

And the viability, T/C (second compound 0.949 µM, first compound 0.003 µM)?
The viability, T/C was 107%.

What about the viability, T/C (second compound 0.949 µM, first compound 0.00949 µM) of the same compound?
Its viability, T/C is 93.4%.

And the viability, T/C (second compound 0.949 µM, first compound 0.03 µM)?
The viability, T/C was 66.9%.

What about the viability, T/C (second compound 0.949 µM, first compound 0.0949 µM) of the same compound?
The viability, T/C was 50.4%.

And the viability, T/C (second compound 0.949 µM, first compound 0.3 µM)?
The viability, T/C was 26.8%.

What about the viability, T/C (second compound 3 µM, first compound 0.000949 µM) of the same compound?
The viability, T/C was 102%.

What about the viability, T/C (second compound 3 µM, first compound 0.003 µM) of the same compound?
Its viability, T/C is 94.2%.

And the viability, T/C (second compound 3 µM, first compound 0.00949 µM)?
The viability, T/C was 79.4%.

And the viability, T/C (second compound 3 µM, first compound 0.03 µM)?
Its viability, T/C is 59.9%.

What about the viability, T/C (second compound 3 µM, first compound 0.0949 µM) of the same compound?
The viability, T/C was 46.9%.

What about the viability, T/C (second compound 3 µM, first compound 0.3 µM) of the same compound?
The viability, T/C was 31.6%.

What does the source list for `COc1c(OCCCN2CCOCC2)ccc2c3n(c(=NC(=O)c4cnc(N)nc4)nc12)CCN3` + CCN1C(C(=O)NC23CCC(C(=O)O)(CC2)CC3)C(c2cccc(Cl)c2F)C2(C(=O)Nc3cc(Cl)ccc32)C12CCCCC2?
pIC50 (second compound 0.03 µM): 7.09; pIC50 (second compound 0.0949 µM): 7.10; pIC50 (second compound 0.3 µM): 7.06; pIC50 (second compound 0.949 µM): 7.04; pIC50 (second compound 3 µM): 7.50; viability, T/C (second compound 0.03 µM, first compound 0.00316 µM): 87.7%; viability, T/C (second compound 0.03 µM, first compound 0.01 µM): 81.5%; viability, T/C (second compound 0.03 µM, first compound 0.0316 µM): 61.5%; viability, T/C (second compound 0.03 µM, first compound 0.1 µM): 49.7%; viability, T/C (second compound 0.03 µM, first compound 0.316 µM): 34.6%; viability, T/C (second compound 0.03 µM, first compound 1 µM): 33.8%; viability, T/C (second compound 0.0949 µM, first compound 0.00316 µM): 102%; viability, T/C (second compound 0.0949 µM, first compound 0.01 µM): 78.7%; viability, T/C (second compound 0.0949 µM, first compound 0.0316 µM): 63.4%; viability, T/C (second compound 0.0949 µM, first compound 0.1 µM): 47.8%; viability, T/C (second compound 0.0949 µM, first compound 0.316 µM): 34.3%; viability, T/C (second compound 0.0949 µM, first compound 1 µM): 32.3%; viability, T/C (second compound 0.3 µM, first compound 0.00316 µM): 99.3%; viability, T/C (second compound 0.3 µM, first compound 0.01 µM): 88.2%; viability, T/C (second compound 0.3 µM, first compound 0.0316 µM): 65.2%; viability, T/C (second compound 0.3 µM, first compound 0.1 µM): 49.9%; viability, T/C (second compound 0.3 µM, first compound 0.316 µM): 34.7%; viability, T/C (second compound 0.3 µM, first compound 1 µM): 33.5%; viability, T/C (second compound 0.949 µM, first compound 0.00316 µM): 100%; viability, T/C (second compound 0.949 µM, first compound 0.01 µM): 85.9%; viability, T/C (second compound 0.949 µM, first compound 0.0316 µM): 66.4%; viability, T/C (second compound 0.949 µM, first compound 0.1 µM): 49%; viability, T/C (second compound 0.949 µM, first compound 0.316 µM): 37%; viability, T/C (second compound 0.949 µM, first compound 1 µM): 34.1%; viability, T/C (second compound 3 µM, first compound 0.00316 µM): 83.3%; viability, T/C (second compound 3 µM, first compound 0.01 µM): 67.6%; viability, T/C (second compound 3 µM, first compound 0.0316 µM): 50.1%; viability, T/C (second compound 3 µM, first compound 0.1 µM): 39.3%; viability, T/C (second compound 3 µM, first compound 0.316 µM): 31.2%; viability, T/C (second compound 3 µM, first compound 1 µM): 34.1%

— PubChem BioAssay AID1963443 (Molecular Pharmacology Branch, DTP, NCI, 2024)
